Key:
PKR R532W = PKR R532W (Homo sapiens, UniProt P30613, R532W); assay: PKR Mutant Assay, AC50 against PKR R532W; format: biochemical; conditions: mutant PKR R532W enzyme
Summary of the method: (§1)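 LDH-coupled NADH depletion read as A340 change at room temperature after ADP (0.22-1.65 mM) start. Compounds, tested from 100 μM final in 3-fold steps over 11 points with 1% DMSO, sat 60 min with enzyme (80-400 ng/well), PEP 0.1-0.5 mM and NADH 180 uM in Tris pH 7.5/KCl/MgCl2/DTT/BSA buffer.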

PKR WT [1] = target: T1, PKR WT (Homo sapiens, UniProt P30613); assay: PKR WT cell based AC50 assay; conditions: wild type PKR
PKR WT [2] = target: T1, PKR WT; assay: PKR WT enzymatic AC50 assay; format: biochemical; conditions: wild type PKR
Summary of the method: as §1

PKR R510Q = PKR R510Q (Homo sapiens, UniProt P30613, R510Q); assay: PKR Mutant Assay, AC50 against PKR R510Q; format: biochemical; conditions: mutant PKR R510Q enzyme
Summary of the method: as §1

T1 sequence (P30613 whole entry): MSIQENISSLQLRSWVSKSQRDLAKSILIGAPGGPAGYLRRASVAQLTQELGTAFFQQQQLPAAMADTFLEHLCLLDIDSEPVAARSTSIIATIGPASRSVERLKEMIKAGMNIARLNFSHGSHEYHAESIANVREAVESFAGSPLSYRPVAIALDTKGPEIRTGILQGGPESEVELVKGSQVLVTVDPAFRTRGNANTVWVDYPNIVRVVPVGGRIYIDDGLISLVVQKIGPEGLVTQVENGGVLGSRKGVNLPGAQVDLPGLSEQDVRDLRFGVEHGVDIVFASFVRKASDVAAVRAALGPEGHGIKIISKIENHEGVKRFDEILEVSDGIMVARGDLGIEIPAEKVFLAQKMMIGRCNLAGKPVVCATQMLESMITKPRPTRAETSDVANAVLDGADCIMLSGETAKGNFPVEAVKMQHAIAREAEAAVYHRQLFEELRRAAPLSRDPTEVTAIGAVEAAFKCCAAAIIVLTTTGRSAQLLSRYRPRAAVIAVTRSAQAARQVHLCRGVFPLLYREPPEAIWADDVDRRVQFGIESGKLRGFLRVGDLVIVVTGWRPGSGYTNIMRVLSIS
Chain of PKR R510Q (P30613 whole entry R510Q): as the sequence (P30613 whole entry) above, with R510Q counted along it
Chain of PKR R532W (P30613 whole entry R532W): as the sequence (P30613 whole entry) above, with R532W counted along it

Row | AC50 (PKR R532W) [µM] | AC50 (PKR WT [1]) [µM] | AC50 (PKR WT [2]) [µM] | AC50 (PKR R510Q) [µM] | SMILES
1 | < 0.1 | < 0.1 | < 0.1 | < 0.1 | Nc1nc2c(S(=O)(=O)Nc3ccc(C(=O)N4CCC(O)(c5ccccc5Cl)CC4)cc3)cccc2s1 [Compound 407, 2-amino-N-(4-(4-(2-chlorophenyl)-4-hydroxypiperidine-1-carbonyl)phenyl)benzo[d]thiazole-4-sulfonamide]
2 | < 0.1 | < 0.1 | < 0.1 | < 0.1 | CNc1nc2c(S(=O)(=O)Nc3ccc(C(=O)N4CCC(O)(CC(C)C)CC4)cc3)cccc2s1 [Compound 408, N-(4-(4-hydroxy-4-isobutylpiperidine-1-carbonyl)phenyl)-2-(methylamino)benzo[d]thiazole-4-sulfonamide]
3 | < 0.1 | < 0.1 | 0.101 to 1 | 0.101 to 1 | Cn1cc(C2(O)CCN(C(=O)c3ccc(NS(=O)(=O)c4cccc5scnc45)cc3)CC2)cn1 [Compound 411, N-[4-[4-hydroxy-4-(1-methylpyrazol-4-yl)piperidine-1-carbonyl]phenyl]benzothiazole-4-sulfonamide]
4 | < 0.1 | 0.101 to 1 | < 0.1 | 0.101 to 1 | O=C(c1ccc(NS(=O)(=O)c2cccc3scnc23)cc1)N1CCC(O)(Cc2ccccc2C(F)(F)F)CC1 [Compound 412, N-(4-(4-hydroxy-4-(2-(trifluoromethyl)benzyl)piperidine-1-carbonyl)phenyl)benzo[d]thiazole-4-sulfonamide]
5 | < 0.1 | < 0.1 | < 0.1 | < 0.1 | Nc1nc2c(S(=O)(=O)Nc3ccc(C(=O)N4CCC(O)(CCCC(F)(F)F)CC4)cc3)cccc2s1 [Compound 420]
6 | < 0.1 | < 0.1 | < 0.1 | < 0.1 | Nc1nc2c(S(=O)(=O)Nc3ccc(C(=O)N4CCC(O)(c5cccc(F)c5F)CC4)cc3)cccc2s1 [Compound 422]
7 | < 0.1 | < 0.1 | < 0.1 | 0.101 to 1 | CC(C)CC1(O)CCN(C(=O)c2ccc(NS(=O)(=O)c3cccc4c3OCO4)cc2)CC1 [Compound 423]
8 | 0.101 to 1 | 0.101 to 1 | < 0.1 | < 0.1 | O=C(c1ccc(NS(=O)(=O)c2cccc3c(O)ncnc23)cc1)N1CCC(O)(/C=C/CC(F)(F)F)CC1 [Compound 424]
9 | 0.101 to 1 | < 0.1 | < 0.1 | < 0.1 | Nc1nc2c(S(=O)(=O)Nc3ccc(C(=O)N4CCC(O)(/C=C/CC(F)(F)F)CC4)cc3)cccc2s1 [Compound 425]
10 | 0.101 to 1 | 0.101 to 1 | 0.101 to 1 | 0.101 to 1 | O=C(c1ccc(NS(=O)(=O)c2cccc3c(O)ncnc23)cc1)N1CCC(O)(CCC(F)(F)F)CC1 [Compound 426]
11 | < 0.1 | < 0.1 | < 0.1 | < 0.1 | O=C(c1ccc(NS(=O)(=O)c2cccc3c(O)ncnc23)cc1)N1CCC(O)(CCCC(F)(F)F)CC1 [Compound 427]
12 | < 0.1 | < 0.1 | < 0.1 | 0.101 to 1 | O=C(c1ccc(NS(=O)(=O)c2cccc3c(O)ncnc23)cc1)N1CCC(O)(c2cccc(F)c2F)CC1 [Compound 428]
13 | < 0.1 | < 0.1 | < 0.1 | < 0.1 | CC(CC1(O)CCN(C(=O)c2ccc(NS(=O)(=O)c3cccc4sc(N)nc34)cc2)CC1)C(F)(F)F (stereo not shown) [Compound 429]
14 | < 0.1 | 0.101 to 1 | < 0.1 | 0.101 to 1 | Nc1nc2c(S(=O)(=O)Nc3ccc(C(=O)N4CCC(O)(CCC(F)(F)F)CC4)cc3)cccc2s1 [Compound 430]
15 | < 0.1 | 0.101 to 1 | < 0.1 | < 0.1 | CC(CC1(O)CCN(C(=O)c2ccc(NS(=O)(=O)c3cccc4c(O)ncnc34)cc2)CC1)C(F)(F)F (stereo not shown) [Compound 431]
16 | < 0.1 | 0.101 to 1 | < 0.1 | 0.101 to 1 | O=C(c1ccc(NS(=O)(=O)c2cccc3scnc23)cc1)N1CCC(O)(CC2CC2(F)F)CC1 (stereo not shown) [Compound 432]
17 | < 0.1 | 0.101 to 1 | 0.101 to 1 | 0.101 to 1 | Cn1nccc1CC1(O)CCN(C(=O)c2ccc(NS(=O)(=O)c3cccc4scnc34)cc2)CC1 [Compound 433]
18 | < 0.1 | 0.101 to 1 | 0.101 to 1 | 0.101 to 1 | Cn1cc(CC2(O)CCN(C(=O)c3ccc(NS(=O)(=O)c4cccc5scnc45)cc3)CC2)cn1 [Compound 434]
19 | < 0.1 | 0.101 to 1 | < 0.1 | < 0.1 | CC(F)(F)CCC1(O)CCN(C(=O)c2ccc(NS(=O)(=O)c3cc(F)cc4sc(N)nc34)cc2)CC1 [Compound 435]
20 | < 0.1 | 0.101 to 1 | 0.101 to 1 | 0.101 to 1 | CC(F)(F)CCC1(O)CCN(C(=O)c2ccc(NS(=O)(=O)c3cccc4nccnc34)cc2OC(F)F)CC1 [Compound 436]
21 | < 0.1 | < 0.1 | < 0.1 | < 0.1 | CC(C)CC1(O)CCN(C(=O)c2ccc(NS(=O)(=O)c3cccc4ncc(N)nc34)cc2)CC1 [Compound 437]
22 | < 0.1 | < 0.1 | < 0.1 | < 0.1 | CC(C)CC1(O)CCN(C(=O)c2ccc(NS(=O)(=O)c3cccc4nc(N)cnc34)cc2)CC1 [Compound 439]
